For data set [1] the following is noted: cited from earlier work.
The conditions of data set [2]: cited from earlier work; for toxicity or side effects on oral administration: TBN 1.5 mM, AN9 300 μM concentrations.
Data set [3] relates to healthy and MELAS fibroblasts. Nature of the data set: Dose-dependent studies for optimal safe concentrations. The conditions noted are these: three days of treatment. In kind it is cell-based, human. An excerpt: Experimental approaches. Five distinct molecular tools were used to investigate mitochondrial biogenesis: 1) the mitochondrial-specific dyes, MitoTracker® Green (MTG) and MitoTracker® Red (MTR); 2) the mito-GFP or mito-dsRed vector to fluorescently label mitochondria; 3) antibodies against mtDNA, COXVα, or SOD2; 4) the fluorescent PicoGreen® dye labeling mtDNA; and 5) quantitative PCR to determine mtDNA copy number.
(§1) Butyrates rescue the mitochondrial mass, morphology, networking, membrane potential, and cellular ATP levels in MELAS fibroblasts. Skin fibroblasts from two MELAS patients and from a healthy subject as a control were used. Dose-dependent analyses of butyrates to determine their best concentrations for eliciting an optimal mitochondrial response without cellular toxicity was performed. Healthy and MELAS fibroblasts were treated with PBS, NaBt (2.5 mM), TBN (1.5 mM), or AN9 (300 μM) for three days before labeling with the MTG dye for live cell confocal analysis.

In data set [4] the test system is MELAS fibroblasts. The experiment in a line: Mitochondrial mass, morphology and networking (MTG live cell confocal analysis). In kind it is cell-based, human. The conditions noted are these: three-day exposure; NaBt 2.5 mM, TBN 1.5 mM, AN9 300 μM.
From the text: FIG. 17A-17C are images from microscopy and graphs showing that butyrates rescue the mitochondrial phenotype in MELAS fibroblasts. (A) Confocal analysis of healthy and MELAS fibroblasts treated as indicated and labeled with the MTG dye; scale bar=10 (B) Analysis of the mitochondrial mass; n=3 (60 cells per experiment; ^‡p<0.05, unpaired T-test *p<0.05, paired T-test). (C) Analysis of Δψm (^‡p<0.05, unpaired T-test; *p<0.05, paired T-test).
as §1
(§2) Butyrates rescue the mitochondrial mass, morphology, networking, and membrane potential in MELAS fibroblasts. Skin fibroblasts from two MELAS patients and from a healthy subject as a control were used. Dose-dependent analyses of butyrates was performed to determine their best concentrations for eliciting an optimal mitochondrial response without cellular toxicity. Healthy and MELAS fibroblasts were treated with PBS, NaBt (2.5 mM), TBN (1.5 mM), or AN9 (300 μM) for three days before labeling with the MTG dye for live cell confocal analysis.

The test system of data set [5] is MELAS fibroblasts. The experiment in a line: Morphometric analysis of mitochondrial connectivity (Image J). In kind it is cell-based, human. The conditions noted are these: Image J analysis of MTG-labeled fibroblasts. The procedure:
FIG. 18 is a graph showing that butyrate and its derivatives rescue the mitochondrial dynamics and connectivity in MELAS fibroblasts.
as §2

The conditions of data set [6]: human, in vivo; cited from earlier work.
Data set [7] deals with PC12-ND6 cells. Nature of the data set: Cell death upon chloramphenicol exposure. In kind it is cell-based. Particulars: chloramphenicol 0, 15, 30, 60 μM, two days. An excerpt:
(§3) FIG. 14A-14E are images from microscopy showing that pre-treatment of PC12-ND6 cells with NaBt prevents chloramphenicol-mediated decrease of mitochondrial mass. (A) Graph of PC12-ND6 cell death upon exposure to different concentrations of chloramphenicol (Cm). Percent of cell death±SEM (n=250 cells). (B) Quantitative immunoblot analysis of mitochondrial-encoded MT-CO1 protein (green) and nuclear-encoded SDH-A protein (red) in Cm-treated PC12-ND6 cells. (C) Graph of MT-CO1/SDH-A ratio normalized to untreated PC12-ND6 cells. Mean±SEM (n=3; compared to untreated cells *p=0.0052, **p=0.0048, and ***p=0.0034). (D) Confocal micrographs of untreated and Cm-treated PC12-ND6 cells transfected with the vector mito-GFP. Scale bar represents 5 μm. (E) Confocal micrographs of NaBt pre-treated PC12-ND6 cells transfected with the vector mito-GFP and exposed to Cm. Scale bar represents 5 μm.
(§4) The efficacy of chloramphenicol treatment was determined by simultaneously examining the expression levels of the nuclear-encoded succinate dehydrogenase (SDH-A) subunit of Complex II and the mitochondrial-encoded subunit I of Complex IV (MT-COI) using a quantitative immunoblot approach. […] The effect of chloramphenicol on mitochondrial mass by live-cell confocal microscopy using PC12-ND6 cells transfected with the vector mito-GFP was confirmed.

For a further data set, the system named is MT-COI. The experiment in a line: Quantitative immunoblot of mitochondrial-encoded MT-COI. In kind it is cell-based. Particulars: lowest dose of chloramphenicol.
From the text: as §3, §4
For orientation: A western blot detects proteins with antibodies after separation by electrophoresis.

A further data set relates to SDH-A. The experiment in a line: Quantitative immunoblot of nuclear-encoded SDH-A. It is filed as cell-based. The conditions noted are these: chloramphenicol 15-60 μM.
From the text: as §3, §4

The test system of data set [8] is PC12-ND6 cells. The experiment in a line: Mitochondrial mass under chloramphenicol (mito-GFP live-cell confocal microscopy). It is filed as cell-based. The conditions noted are these: chloramphenicol-treated.
From the text: as §3, §4

For data set [9], the system named is E17.5 hippocampal neurons. Nature of the data set: Neuronal stage 3 frequency with chloramphenicol and NaBt. In kind it is cell-based. Particulars: no NaBt. The source says:
FIG. 16A-16I are images from microscopy and a graph showing that Pre-treatment of E17.5 hippocampal neurons with NaBt protects against chloramphenicol-induced loss of neuronal differentiation. (A-D) Confocal micrographs of E17.5 hippocampal neurons exposed to different concentrations of chloramphenicol at 2DIV and labeled with anti tubulin antibody (red) and nuclear counterstain DAPI (blue) at 3DIV. Scale bar represents 10 μm. (E-H) Confocal micrographs of E17.5 hippocampal neurons treated with NaBt (2 mM) at 1DIV prior to exposure to different concentrations of chloramphenicol at 2DIV and labeled with anti tubulin antibody (red) and nuclear counterstain DAPI (blue) at 3DIV. Scale bar represents 10 μm. (I) Graph of E17.5 β-III^+ hippocampal neurons at the neuronal stage 3. Mean±S.D. (n=250 cells; compared to untreated control *p=0.0001; compared to the corresponding non-NaBt treated sample **p=0.0001; compared to non-NaBt treated cells exposed to Cm at 30 μM‡p=0.007).
The consequences of chloramphenicol exposure on untreated or NaBt-treated E17.5 hippocampal neurons was examined. At 1DIV, dissociated E17.5 hippocampal neurons were switched to differentiation medium in the absence or presence of NaBt (2 mM) for 24 hours before being treated with increasing concentrations of chloramphenicol (0, 15, 30, and 60 μM) for 24 hours. At 3DIV, their phenotypic differentiation was examined by immunocytochemistry using an antibody against the pan-neuronal marker β-III tubulin and quantified the percent of neurons having reached the developmental stage 3 for each experimental condition. As expected, only half of untreated neurons reached stage 3 in the absence of NaBt, while more than 90% of NaBt-treated neurons achieved such degree of differentiation, thereby forming an elaborate neuritic network (FIGS. 16A, E, and I).

In data set [10] the test system is PC12-ND6 cells. Nature of the data set: NGF (100 ng/ml)-mediated neurite outgrowth after chloramphenicol. It is filed as cell-based. Particulars: chloramphenicol lowest concentration two days, then NGF 100 ng/ml three days. An excerpt:
FIG. 15A-15C are images from microscopy and a graph showing that Pre-treatment of PC12-ND6 cells negates the inhibitory effect of chloramphenicol on NGF-mediated neuronal differentiation. (A) Confocal micrographs of untreated and Cm-treated PC12-ND6 cells transfected with the vector mito-GFP and exposed to NGF. Scale bar represents 20 μm. (B) Confocal micrographs of NaBt pre-treated PC12-ND6 cells transfected with the vector mito-GFP and exposed to chloramphenicol prior to NGF treatment. Scale bar represents 20 μm. (C) Graph of average total neurite length. Mean±SEM (n=50 cells; compared to untreated PC12-ND6 cells *p=0.0001; compared to non-NaBt-treated PC12-ND6 cells with corresponding Cm concentration **p=0.0001).
Based on the results that NaBt endows PC12-ND6 cells with increased mitochondrial mass through biogenesis, resulting in accelerated neuronal differentiation, it was examined whether exposure to NaBt for three days could confer protection to chloramphenicol-mediated inhibition of neuronal differentiation upon NGF signaling.

In data set [11] the test system is PC12-ND6 cells. The conditions noted are these: dbcAMP alone, PC12 cell system; cited from earlier work.
Data set [12] deals with PC12-ND6 cells. The conditions noted are these: TSA 0.66 μM, control HDAC inhibitor; cited from earlier work.
The subject of data set [13] is MELAS fibroblasts. Nature of the data set: Apoptosis induced by hydroxamate HDACis. In kind it is cell-based, human.

Read-outs that look alike come from different tables or passages of the source.

Turning to `CCCC(=O)OCOC(=O)C(C)(C)C` [AN9, pivaloyloxymethyl butyrate], in [1], the cell membrane permeability entry is “increased cell membrane permeability”. The “toxicity or side effects on oral administration” value in data set [2] is recorded as “without toxicity or side effects”. Besides, the toxicity result in data set [2] (in vivo) is listed as “low toxicity”. The “oral pharmacological concentrations relative to NaBt” value in data set [2] (orally administered) is 140 times lower than NaBt. Moreover, the “optimal safe concentration for eliciting maximal mitochondrial biogenesis without cellular toxicity” value in data set [3] stood at 300 µM. Further, the “mitochondrial mass, morphology, and networking” value with MELAS fibroblasts [4] is “restored normal mitochondrial mass, morphology, and networking”. Also, the connectivity among mitochondria result in the data set with MELAS fibroblasts [5] is “rescue the connectivity among mitochondria”.
Turning to `CCCC(=O)OCC(COC(=O)CCC)OC(=O)CCC` [TBN, tributyrin], the “toxicity or side effects on oral administration” value in data set [2] is listed as “without toxicity or side effects”. The “concentration pharmacologically attainable via oral administration without toxicity or side effects” value in [2] (oral) is reported as “up to 2 mM”. Besides, the “optimal safe concentration for eliciting maximal mitochondrial biogenesis without cellular toxicity” value in data set [3] is 1500 µM. In addition, the “mitochondrial mass, morphology, and networking” value with MELAS fibroblasts [4] was “restored normal mitochondrial mass, morphology, and networking”. In the data set with MELAS fibroblasts [5], the connectivity among mitochondria entry was “rescue the connectivity among mitochondria”.
For the compound `CCCC(CCC)C(=O)O` [Valproic acid], the effect on seizures result in [6] is “propensity to worsen seizures”.
Regarding `O=C(N[C@H](CO)[C@H](O)c1ccc([N+](=O)[O-])cc1)C(Cl)Cl` [chloramphenicol], the cell death entry in the data set with PC12-ND6 cells [7] is given as “negligible cell death”. Also, in the data set with MT-COI, the MT-COI expression result is recorded as “abolished most of MT-COI expression”. Further, in the data set with SDH-A, the SDH-A expression levels result is given as “none of the chloramphenicol concentrations altered”. In addition, the mitochondrial mass result in the data set on PC12-ND6 cells [8] was “concentration-dependent decrease of mitochondrial mass”. In addition, the “percent of neurons at stage 3” value in data set [9] (chloramphenicol 15 μM) is listed as “did not alter the percent of neurons at stage 3”. For the same compound, the “decreased transition to stage 3” value in [9] (chloramphenicol 30 μM) amounted to 27%; in [9] (chloramphenicol 60 μM) it was 54%. Besides, the “reduction in total neurite length” value in the data set with PC12-ND6 cells [10] was determined as 43%.
As to `CCCC(=O)Nc1ncnc2c1ncn2[C@@H]1O[C@@H]2COP(=O)(O)O[C@H]2[C@H]1OC(=O)CCC` [dbcAMP], the neurite length with PC12-ND6 cells [11] was 15-20 μm.
Consider `CC(/C=C/C(=O)NO)=C\[C@@H](C)C(=O)c1ccc(N(C)C)cc1` [trichostatin A], for which, in the data set with PC12-ND6 cells [12], the cell death result was “mild cell death”. The apoptosis result in the data set on MELAS fibroblasts [13] was “induce apoptosis”.
As to `O=C(CCCCCCC(=O)Nc1ccccc1)NO` [vorinostat], the apoptosis entry in the data set on MELAS fibroblasts [13] is given as “induce apoptosis”.

Values taken from patent US10272056B2, “Treatment for mitochondrial diseases” (The George Washington University a Congressionally …, priority 2015, dated 2019).
